Measurements as given in patent US20190343908A1, “Therapeutic Combination for the Treatment of Cancer” (Nerium Biotechnology Inc., priority 2011, published 2019).

Columns and labels:
[1] = test system: LNCaP prostate cancer cell line; assay: Sulforhodamine B viability assay, LNCaP; type: cell-based, human; settings: for ABSORBANCE: LNCaP, 0.1 μg/mL cisplatin
Excerpt: Three different viability assays were chosen to complement each other and yielded results dependent on concentration and cell line: the Methyl Tetrazolium dye assay, the Sulforhodamine B fluorescent dye assay, and the Crystal Violet dye assay.
The Sulforhodamine B and Crystal Violet assays provide information about protein and were used to complement the Methyl-Tetrazolium dye assay. […] It is used for the quantification of cellular proteins of cultured cells. The assay using Crystal Violet, a dye that binds electrostatically to proteins and stains DNA, provides a reliable, simple assay for measuring viability of cells.
(§1) The Methyl Tetrazolium, Sulforhodamine B, and Crystal Violet assays were used to assess cell viabilities. The incubation times were 24 hours, 48 hours, and 72 hours. The Nerium oleander extract Anvirzel™ (a hot water extract of oleander obtained from Salud Integral, Honduras) was tested in concentrations ranging from 0.01 ng/mL to 10 ng/mL.
(§2) Cells were detached by trypsinization (Trypsin-0.25% EDTA, Invitrogen, 25200-072) during the logarithmic phase of culture growth and plated in 96-well plates (18.000 cells/well) (Corning, Costar 359) in a final volume of 200 μl of medium per well. […] The absorbance was measured after 24 hours, 48 hours, and 72 hours of incubation.
For the Sulforhodamine B assay, 96-well plates were fixed by 10% trichloroacetic acid (Fluka, 91228) and were incubated at 4° C. for 1 hour. Afterwards, plates were rinsed with water and cells were stained with 0.4% Sulforhodamine B (Sigma, 341738), dissolved in 1% acetic acid (Carlo Ebra, 401422) for 15 minutes at room temperature (RT). The unbound stain was washed twice with 1% acetic acid. Finally, 10 mM Tris Buffer pH 10.5 (Sigma, T6791) was added to dissolve the dye.
(§3) The optical density of each plate was measured on a μQuant spectrophotometer and the data were analyzed with Gen5 software (μQuant Biomolecular Spectrophotometer MQX200 and Gen5™ Microplate Data Collection & Analysis software, BioTek® Instruments. Inc, April 2008). Absorbance was measured at 570 nm for all assays and a second wavelength was measured in order to subtract noise. For the Methyl-Tetrazolium assay this second wavelength was 630 nm and for the Sulforhodamine B and Crystal Violet assays it was 690 nm.

[2] = test system: PANC-1 pancreatic cancer cell line; assay: Methyl-Tetrazolium viability assay, PANC-1; type: cell-based, human; design: key to Average MTT: absorbance at 570 nm (optical density); settings: for ABSORBANCE: 0.1 μg/mL cisplatin; for MTT 24 h / MTT 48 h / MTT 72 h: Run 1 average
Excerpt: The Methyl-Tetrazolium dye assay measures the activity of enzymes in mitochondria. The dye precursor is taken up by cells, where it undergoes reduction to the purple formazan. It measures only the mitochondrial activity and, thus, it is not always a reliable indication of whether the cells themselves are alive or dead, since even a recently dead cell has […] enzyme activity in mitochondria. Intracellular glucose concentration, pH, and time before assay all affect the measurements.
as §1, §2
For the Methyl-Tetrazolium assay, the dye (Sigma, M2128; 5 mg/mL, diluted in phosphate-buffered saline) was added to each well and plates were incubated for 3 hours at 37° C. After the end of the incubation period, the medium was discarded and the cells were rinsed with phosphate-buffered saline. Finally, the formazan crystals were dissolved in dimethylsulphoxide (Sigma, D4540).
as §3

## N.N.[Cl][Pt][Cl] [cisplatin]
[1]; LNCaP Run 3, 24 h, 0.1 μg/ml CDDP
  SRB Average: 1.975
[1]; LNCaP Run 3, 24 h, 1 μg/ml CDDP
  SRB Average: 1.541
[1]; LNCaP Run 3, 24 h, 10 μg/ml CDDP
  SRB Average: 1.242
[1]; LNCaP Run 3, 24 h, 100 μg/ml CDDP
  SRB Average: 1.2
[1]; LNCaP Run 3, 48 h, 0.1 μg/ml CDDP
  SRB Average: 1.761
[1]; LNCaP Run 3, 48 h, 1 μg/ml CDDP
  SRB Average: 1.56
[1]; LNCaP Run 3, 48 h, 10 μg/ml CDDP
  SRB Average: 1.46
[1]; LNCaP Run 3, 48 h, 100 μg/ml CDDP
  SRB Average: 1.284
[1]; LNCaP Run 3, 72 h, 0.1 μg/ml CDDP
  SRB Average: 2.009
[1]; LNCaP Run 3, 72 h, 1 μg/ml CDDP
  SRB Average: 1.584
[1]; LNCaP Run 3, 72 h, 10 μg/ml CDDP
  SRB Average: 1.561
[1]; LNCaP Run 3, 72 h, 100 μg/ml CDDP
  SRB Average: 1.421
[1]; 48 h
  ABSORBANCE: 1.681
[1]; 72 h
  ABSORBANCE: 1.766
[1]; Run 1, 0.1 μg/ml CDDP
  Average SRB 24 h: 1.611
  Average SRB 48 h: 2.798
  Average SRB 72 h: 2.532
[1]; Run 1, 1 μg/ml CDDP
  Average SRB 24 h: 1.294
  Average SRB 48 h: 2.888
  Average SRB 72 h: 2.483
[1]; Run 1, 10 μg/ml CDDP
  Average SRB 24 h: 1.205
  Average SRB 48 h: 2.893
  Average SRB 72 h: 2.648
[1]; Run 1, 100 μg/ml CDDP
  Average SRB 24 h: 1.2
  Average SRB 48 h: 2.555
  Average SRB 72 h: 2.649
[1]; Run 2, 0.1 μg/ml CDDP
  Average SRB 24 h: 1.78
  Average SRB 48 h: 1.681
  Average SRB 72 h: 1.766
[1]; Run 2, 1 μg/ml CDDP
  Average SRB 24 h: 1.495
  Average SRB 48 h: 1.14
  Average SRB 72 h: 1.396
[1]; Run 2, 10 μg/ml CDDP
  Average SRB 24 h: 0.982
  Average SRB 48 h: 1.077
  Average SRB 72 h: 1.28
[1]; Run 2, 100 μg/ml CDDP
  Average SRB 24 h: 0.985
  Average SRB 48 h: 1.138
  Average SRB 72 h: 1.25
[2]; PANC-1, 48 h
  ABSORBANCE: 0.286
[2]; PANC-1, 72 h
  ABSORBANCE: 0.344
[2]; PANC-1, Run 2, 24 h, 0.1 μg/ml CDDP
  Average MTT: 0.096
[2]; PANC-1, Run 2, 24 h, 1 μg/ml CDDP
  Average MTT: 0.029
[2]; PANC-1, Run 2, 24 h, 10 μg/ml CDDP
  Average MTT: 0.058
[2]; PANC-1, Run 2, 24 h, 100 μg/ml CDDP
  Average MTT: 0.029
[2]; PANC-1, Run 2, 48 h, 0.1 μg/ml CDDP
  Average MTT: 0.178
[2]; PANC-1, Run 2, 48 h, 1 μg/ml CDDP
  Average MTT: 0.037
[2]; PANC-1, Run 2, 48 h, 10 μg/ml CDDP
  Average MTT: 0.041
[2]; PANC-1, Run 2, 48 h, 100 μg/ml CDDP
  Average MTT: 0.034
[2]; PANC-1, Run 2, 72 h, 0.1 μg/ml CDDP
  Average MTT: 0.241
[2]; PANC-1, Run 2, 72 h, 1 μg/ml CDDP
  Average MTT: 0.033
[2]; PANC-1, Run 2, 72 h, 10 μg/ml CDDP
  Average MTT: 0.04
[2]; PANC-1, Run 2, 72 h, 100 μg/ml CDDP
  Average MTT: 0.033
[2]; PANC-1, Run 3, 24 h, 0.1 μg/ml CDDP
  Average MTT: 0.076
[2]; PANC-1, Run 3, 24 h, 1 μg/ml CDDP
  Average MTT: 0.02
[2]; PANC-1, Run 3, 24 h, 10 μg/ml CDDP
  Average MTT: 0.04
[2]; PANC-1, Run 3, 24 h, 100 μg/ml CDDP
  Average MTT: 0.022
[2]; PANC-1, Run 3, 48 h, 0.1 μg/ml CDDP
  Average MTT: 0.286
[2]; PANC-1, Run 3, 48 h, 1 μg/ml CDDP
  Average MTT: 0.043
[2]; PANC-1, Run 3, 48 h, 10 μg/ml CDDP
  Average MTT: 0.045
[2]; PANC-1, Run 3, 48 h, 100 μg/ml CDDP
  Average MTT: 0.044
[2]; PANC-1, Run 3, 72 h, 0.1 μg/ml CDDP
  Average MTT: 0.344
[2]; PANC-1, Run 3, 72 h, 1 μg/ml CDDP
  Average MTT: 0.049
[2]; PANC-1, Run 3, 72 h, 10 μg/ml CDDP
  Average MTT: 0.05
[2]; PANC-1, Run 3, 72 h, 100 μg/ml CDDP
  Average MTT: 0.049
[2]; 0.1 μg/ml CDDP
  MTT 24 h: 0.169
  MTT 48 h: 0.24
[2]; 1 μg/ml CDDP
  MTT 24 h: 0.035
  MTT 48 h: 0.035
  MTT 72 h: 0.03
[2]; 10 μg/ml CDDP
  MTT 24 h: 0.048
  MTT 48 h: 0.038
  MTT 72 h: 0.035
[2]; 100 μg/ml CDDP
  MTT 24 h: 0.034
  MTT 48 h: 0.039
  MTT 72 h: 0.032
